Consider eight compounds from patent US5591741A, “Fungicidal spiroheterocyclic derivatives” (American Cyanamid Company, priority 1993, dated 1997).

The structures appear in SMILES notation.

The subject of experiment [1] is Erysiphe graminis f.sp. hordei. In words: Direct protectant activity against barley powdery mildew (EGP). Type of experiment: in vivo. The conditions noted are these: direct protectant foliar spray, 8 days. The procedure, abridged: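 Barley seedlings (cv Golden Promise, single-leaf stage) were foliar-sprayed, held 24 h at 18 °C/40% RH, then dusted with mildew conidia. After 8 days at 18 °C/40% RH, sporulating leaf area was scored as a rating against untreated or diluent-sprayed controls.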

For a further experiment, the system named is Leptosphaeria nodorum. In words: Activity against wheat leafspot (LN). Type of experiment: in vivo. The conditions noted are these: direct therapeutic foliar spray, 600 ppm, 6-8 days. The procedure, abridged: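 Wheat cv Norman at single-leaf stage spray-inoculated with 1.5×10^6 conidia/ml, held 24 h at high humidity, then sprayed therapeutically with test compound at 600 ppm. Kept 6-8 days at 22° C, 70% humidity; lesion density per leaf rated against untreated or diluent-sprayed controls.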

The next experiment has as its system Botrytis cinerea. In words: Direct protectant activity against broad bean grey mould (BCB). Type of experiment: in vivo. The conditions noted are these: direct protectant foliar spray, 600 ppm, 4 days. The procedure, abridged:
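Broad bean plants (cv The Sutton, two leaf pairs) sprayed on upper leaf surfaces at 600 ppm, then inoculated 24 h later with 10^6 conidia/ml. Kept 4 days at 22 °C, high humidity; disease control rated from % leaf area with lesions against untreated or diluent controls.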

The next experiment concerns Rhizoctonia solani. In words: Activity against Rhizoctonia in-vitro (RSI). The conditions noted are these: 10 ppm, 10 days, 20° C., mycelial growth. Type of experiment: cell-based. In outline: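 R. solani mycelial fragments (5×10^4/ml) in half-strength Potato Dextrose Broth with compound added from acetone to 10 ppm final. Mycelial growth assessed after 10 days at 20° C, rated against untreated or diluent control.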

For another experiment, the system named is Phytophthora infestans. Type of experiment: in vivo. The conditions noted are these: tomato, direct protectant foliar spray.
The test system of the next experiment is Alternaria solani. In words: Activity against tomato early blight (AS). Type of experiment: in vivo. The conditions noted are these: Table VI; tomato seedlings, contact prophylactic foliar spray, 4 days. The procedure, abridged: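 Foliar contact prophylactic spray on tomato seedlings (cv Outdoor Girl, second true leaf expanded) in acetone/water 50:50 with 0.04% Tween 20; 24 h at 20° C, 40% R.H., then inoculation with 10^4 spores/ml A. solani conidia. Kept moist at 21° C; lesion cover rated 4 days post-inoculation against untreated or diluent-sprayed controls.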

The next experiment concerns Venturia inaequalis. In words: Activity against apple scab in-vitro (VII). Type of experiment: cell-based. The conditions noted are these: 10 ppm, 10 days, 20° C., mycelial growth. The procedure, abridged:
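Compound in acetone was tested at 10 ppm final in half-strength Potato Dextrose Broth inoculated with V. inaequalis mycelial fragments and spores at 5×10^4 propagules/ml. After 10 days at 20° C, mycelial growth was rated against untreated or diluent controls.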

In experiment [2] the test system is Erysiphe graminis f.sp. hordei. In words: Activity against barley powdery mildew, direct therapeutic (EGT). The conditions noted are these: direct therapeutic foliar spray, 600 ppm, up to 7 days. Type of experiment: in vivo. In outline: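 Barley seedlings (cv. Golden Promise, single-leaf stage) were dusted with mildew conidia one day before a therapeutic foliar spray of 600 ppm compound. Plants were kept at 18 °C and 40% humidity for up to 7 days, and sporulating leaf area was rated against untreated or diluent-sprayed controls.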

Another experiment relates to Pyricularia oryzae. Type of experiment: in vivo. The conditions noted are these: rice seedlings, direct therapeutic foliar spray, 600 ppm, 4-5 days.
Experiment [3] deals with Pseudocercosporella herpotrichoides. In words: Activity against wheat eyespot in-vitro (PHI). Type of experiment: cell-based. The conditions noted are these: 10 ppm, 10 days, 20° C., mycelial growth. The procedure, abridged:
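P. herpotrichoides mycelial fragments (5×10^4/ml) grown in half-strength PDB with compound at 10 ppm final, added from acetone. Incubated 10 days at 20 °C; mycelial growth rated against untreated or diluent controls.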

In the next experiment the test system is Plasmopara viticola. In words: Antisporulant activity against vine downy mildew (PVA). Type of experiment: in vivo. The conditions noted are these: vine leaves, antisporulant foliar spray, 600 ppm, 750 l/ha. In outline:
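Cabernet Sauvignon vines (~8 cm) inoculated on lower leaf surfaces with 5×10^4 zoosporangia/ml, held 24 h at 21° C high humidity then 24 h glasshouse. Infected leaves sprayed underside with 600 ppm compound in 1:1 water/acetone, 0.04% Tween 20, 750 l/ha; 96 h glasshouse, 24 h humidity. Sporulating leaf area rated versus control.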

`CC1CCN(C2COC3(CCC(C(C)(C)C)CC3)C2)CC1` (stereo not shown) [Compound 19]: the “disease control rating EGP” value in experiment [1] is 2 (greater than 80% disease control). The “disease control rating LN” value in the experiment on Leptosphaeria nodorum is on record as 1 (about 50-80% disease control). Further, the “disease control rating BCB” value with Botrytis cinerea is 0 (less than 50% disease control). In the experiment with Rhizoctonia solani, the “disease control rating RSI” value was 0 (less than 50% disease control). Further, the “disease control rating PIP” value in the experiment with Phytophthora infestans was 0 (less than 50% disease control). Also, the “disease control rating AS” value in the experiment with Alternaria solani was 0 (less than 50% disease control). The “disease control rating VII” value with Venturia inaequalis is 1 (about 50-80% disease control). In addition, the “disease control rating EGT” value in experiment [2] is 2 (greater than 80% disease control). Further, in the experiment on Pyricularia oryzae, the “disease control rating PO” value is on record as 0 (less than 50% disease control). The “disease control rating PHI” value in experiment [3] is on record as 0 (less than 50% disease control). Further, the “disease control rating PVA” value in the experiment with Plasmopara viticola is listed as 0 (less than 50% disease control).

`CN(C1CCCCC1)C1COC2(CCC(C(C)(C)C)CC2)C1` (stereo not shown) [Compound 20]: the “disease control rating EGP” value in [1] is reported as 2 (greater than 80% disease control). Besides, in the experiment with Leptosphaeria nodorum, the “disease control rating LN” value is recorded as 0 (less than 50% disease control). Besides, in the experiment with Botrytis cinerea, the “disease control rating BCB” value was 0 (less than 50% disease control). In the experiment on Rhizoctonia solani, the “disease control rating RSI” value is 0 (less than 50% disease control). Also, the “disease control rating PIP” value with Phytophthora infestans is reported as 0 (less than 50% disease control). Besides, in the experiment on Alternaria solani, the “disease control rating AS” value was 0 (less than 50% disease control). For the same compound, in the experiment with Venturia inaequalis, the “disease control rating VII” value is on record as 1 (about 50-80% disease control). The “disease control rating EGT” value in [2] is recorded as 2 (greater than 80% disease control). In addition, the “disease control rating PO” value in the experiment with Pyricularia oryzae was 0 (less than 50% disease control). Besides, in experiment [3], the “disease control rating PHI” value is on record as 0 (less than 50% disease control). Moreover, the “disease control rating PVA” value in the experiment on Plasmopara viticola is on record as 0 (less than 50% disease control).

As for `CC(C)(C)C1CCC2(CC1)CC(N1CCCCCC1)CO2` (stereo not shown) [Compound 21], the “disease control rating EGP” value in [1] is 2 (greater than 80% disease control). Besides, the “disease control rating LN” value in the experiment with Leptosphaeria nodorum is 0 (less than 50% disease control). In the experiment on Botrytis cinerea, the “disease control rating BCB” value was 2 (greater than 80% disease control). In addition, the “disease control rating RSI” value in the experiment with Rhizoctonia solani was 0 (less than 50% disease control). For the same compound, the “disease control rating PIP” value in the experiment on Phytophthora infestans is 0 (less than 50% disease control). The “disease control rating AS” value in the experiment on Alternaria solani is recorded as 0 (less than 50% disease control). For the same compound, the “disease control rating VII” value in the experiment with Venturia inaequalis was 1 (about 50-80% disease control). Further, the “disease control rating EGT” value in experiment [2] is listed as 2 (greater than 80% disease control). Further, the “disease control rating PO” value in the experiment with Pyricularia oryzae is recorded as 0 (less than 50% disease control). Also, in [3], the “disease control rating PHI” value is 0 (less than 50% disease control). In addition, in the experiment with Plasmopara viticola, the “disease control rating PVA” value is 0 (less than 50% disease control).

For `CC(C)(C)C1CCC2(CC1)CC(Nc1ccccc1)CO2` (stereo not shown) [Compound 22], the “disease control rating EGP” value in experiment [1] is 1 (about 50-80% disease control). Besides, the “disease control rating LN” value with Leptosphaeria nodorum was 0 (less than 50% disease control). The “disease control rating BCB” value in the experiment with Botrytis cinerea was 0 (less than 50% disease control). In addition, the “disease control rating RSI” value in the experiment with Rhizoctonia solani is reported as 0 (less than 50% disease control). For the same compound, the “disease control rating PIP” value in the experiment with Phytophthora infestans is on record as 0 (less than 50% disease control). Further, the “disease control rating AS” value in the experiment with Alternaria solani is 0 (less than 50% disease control). Also, in the experiment on Venturia inaequalis, the “disease control rating VII” value is 0 (less than 50% disease control). Besides, in experiment [2], the “disease control rating EGT” value was 1 (about 50-80% disease control). Moreover, the “disease control rating PO” value in the experiment on Pyricularia oryzae is listed as 0 (less than 50% disease control). For the same compound, the “disease control rating PHI” value in experiment [3] is 0 (less than 50% disease control). The “disease control rating PVA” value with Plasmopara viticola is on record as 0 (less than 50% disease control).

Regarding `CC(C)(C)C1CCC2(CC1)CC(Nc1ccc(Cl)cc1)CO2` (stereo not shown) [Compound 23], the “disease control rating EGP” value in experiment [1] is on record as 0 (less than 50% disease control). In addition, the “disease control rating LN” value with Leptosphaeria nodorum was 0 (less than 50% disease control). The “disease control rating BCB” value in the experiment on Botrytis cinerea is given as 0 (less than 50% disease control). Besides, the “disease control rating RSI” value in the experiment with Rhizoctonia solani was 0 (less than 50% disease control). Also, the “disease control rating PIP” value with Phytophthora infestans is given as 0 (less than 50% disease control). The “disease control rating AS” value in the experiment with Alternaria solani is recorded as 0 (less than 50% disease control). In addition, the “disease control rating VII” value in the experiment on Venturia inaequalis is recorded as 2 (greater than 80% disease control). In addition, the “disease control rating EGT” value in [2] was 0 (less than 50% disease control). Moreover, the “disease control rating PO” value in the experiment on Pyricularia oryzae is recorded as 0 (less than 50% disease control). For the same compound, the “disease control rating PHI” value in experiment [3] was 0 (less than 50% disease control). Also, the “disease control rating PVA” value in the experiment with Plasmopara viticola is 0 (less than 50% disease control).

For the compound `CC(C)(C)c1ccc(NC2COC3(CCC(C(C)(C)C)CC3)C2)cc1` (stereo not shown) [Compound 24], in experiment [1], the “disease control rating EGP” value is 0 (less than 50% disease control). The “disease control rating LN” value in the experiment with Leptosphaeria nodorum was 0 (less than 50% disease control). In addition, the “disease control rating BCB” value with Botrytis cinerea was 0 (less than 50% disease control). Besides, the “disease control rating RSI” value with Rhizoctonia solani is 0 (less than 50% disease control). Also, in the experiment with Phytophthora infestans, the “disease control rating PIP” value is reported as 0 (less than 50% disease control). In the experiment on Alternaria solani, the “disease control rating AS” value is 0 (less than 50% disease control). Besides, in the experiment with Venturia inaequalis, the “disease control rating VII” value was 0 (less than 50% disease control). The “disease control rating EGT” value in experiment [2] is reported as 0 (less than 50% disease control). Besides, in the experiment with Pyricularia oryzae, the “disease control rating PO” value was 0 (less than 50% disease control). In addition, in experiment [3], the “disease control rating PHI” value was 0 (less than 50% disease control). The “disease control rating PVA” value in the experiment with Plasmopara viticola was 0 (less than 50% disease control).

`CCCCc1ccc(NC2COC3(CCC(C(C)(C)C)CC3)C2)cc1` (stereo not shown) [Compound 25]: in experiment [1], the “disease control rating EGP” value is reported as 0 (less than 50% disease control). Also, the “disease control rating LN” value in the experiment with Leptosphaeria nodorum was 0 (less than 50% disease control). The “disease control rating BCB” value in the experiment on Botrytis cinerea is recorded as 0 (less than 50% disease control). Moreover, in the experiment with Rhizoctonia solani, the “disease control rating RSI” value is given as 0 (less than 50% disease control). Besides, the “disease control rating PIP” value in the experiment with Phytophthora infestans is listed as 0 (less than 50% disease control). The “disease control rating AS” value with Alternaria solani was 0 (less than 50% disease control). Further, the “disease control rating VII” value with Venturia inaequalis was 0 (less than 50% disease control). The “disease control rating EGT” value in experiment [2] is listed as 0 (less than 50% disease control). Further, in the experiment on Pyricularia oryzae, the “disease control rating PO” value is 0 (less than 50% disease control). The “disease control rating PHI” value in experiment [3] is 0 (less than 50% disease control). Besides, the “disease control rating PVA” value in the experiment with Plasmopara viticola is listed as 0 (less than 50% disease control).

Regarding `CCCCc1ccc(CNC2COC3(CCC(C(C)(C)C)CC3)C2)cc1` (stereo not shown) [Compound 26], the “disease control rating EGP” value in [1] is given as 2 (greater than 80% disease control). Moreover, in the experiment on Leptosphaeria nodorum, the “disease control rating LN” value is 0 (less than 50% disease control). In the experiment with Botrytis cinerea, the “disease control rating BCB” value is on record as 0 (less than 50% disease control). The “disease control rating RSI” value in the experiment on Rhizoctonia solani was 0 (less than 50% disease control). In the experiment with Phytophthora infestans, the “disease control rating PIP” value is on record as 0 (less than 50% disease control). The “disease control rating AS” value in the experiment with Alternaria solani is 1 (about 50-80% disease control). In addition, the “disease control rating VII” value in the experiment with Venturia inaequalis is listed as 1 (about 50-80% disease control). In addition, the “disease control rating EGT” value in experiment [2] is given as 2 (greater than 80% disease control). Moreover, the “disease control rating PO” value in the experiment on Pyricularia oryzae is on record as 0 (less than 50% disease control). In [3], the “disease control rating PHI” value was 1 (about 50-80% disease control). Besides, in the experiment with Plasmopara viticola, the “disease control rating PVA” value was 0 (less than 50% disease control).
